Values joined by “and” are separate entries in the source; they are usually repeats but may differ in a detail not shown here. Equal entries are not always repeated. Where two headings read alike, the source gives them in different places.
Key:
[1] = system: Tyrosinase (polyphenol oxidase) isolated from mushrooms; conditions: control 0.0433
Protocol: ^a Tyrosinase (polyphenol oxidase) isolated from mushrooms and purchased from Sigma, St. Louis, Mo. The reaction was carried out in 2 quartz curvette containing 1 ml of phosphate buffer (0.5 M, pH 6.5) 1 ml of substrate (1 mM L-tyrosine in H2 O), 0.5 ml of solvent or drug, 0.5 ml H2 O (for blank), 0.4 ml H2 O and 0.1 ml of enzyme (0.5 mg/ml) for the reaction tube. The reaction was started by the addition of enzyme and the change of optical density (Δ O.D.) was determined at 1 min intervals.

L1210 leukemia cells [2] = assay: 3-day L1210 cell growth inhibition assay in culture (complete or regular medium); format: cell-based, mouse; conditions: for L1210 Cell Growth (cell concentration day 3 - day 0): control growth 147.9
Description: (§1) In this experiment, we further investigated the effects of tyrosinase on L1210 cell growth with two media; 1) complete or regular medium and; 2) tyrosine-phenylalanine depleted medium.
(§2) ^a 3-day cell growth inhibition assay.
^b Cell Growth = (cell concentration day 3 - cell concentration day 0

[3] = Day 1-5 weight change of L1210-bearing mice to assess toxicity; format: in vivo
Protocol: (§3) Male BDF1 mice, initial weight ca 23g, were inoculated i.p. on Day 0 with 10^5 L1210 cells per mouse. Treatment was initiated on Day 1 and continued through Day 9. Animals were weighed on days 1 and 5 to assess toxicity. Agents were prepared fresh daily as follows: 8-OH-quinoline (Eastman Chemical Co.) was dissolved in a small volume of absolute ethanol and diluted to the appropriate concentration with 0.1M sodium phosphate buffer, pH 6.5 (final ethanol concentration: 3%). Dilutions were made in buffer containing 3% ethanol. Tyrosinase^2 (Sigma Chemical Co., lot 121C-9530) was dissolved in buffer containing 3% ethanol. (Previous studies had shown that 3% ethanol had no effect on the activity of the enzyme) For the combination, 8-OH-quinoline was again dissolved in a small volume of ethanol, but diluted with 0.1M sodium phosphate buffer; pH6.5, containing tyrosinase in the appropriate concentration. Dilutions were made in buffer containing both 3% ethanol and tyrosinase so that both ethanol and tyrosinase concentrations remained constant as the 8-OH-quinoline concentration decreased. The combination was "incubated" at room temperature for 30 minutes before administration. The radio of enzyme to substrate administered in the combination was varied from 1:1 to 1:.125.

L1210 leukemia cells [4] = assay: 3-day L1210 cell growth inhibition assay in tyrosine-phenylalanine depleted medium; format: cell-based, mouse; conditions: Tyrosine and Phenylalamine Depleted Medium, 0.15 g/ml 8-Hydroxyquinoline
Description: as §1, §2

[5] = Preliminary toxicity study, single intraperitoneal dose; conditions: mouse, in vivo, ip; single intraperitoneal (i.p.) dose, suspended in Klucel (0.3% hydroxy-propylcellulose), male BDF1 mice
L1210 mouse leukemia = assay: Antileukemia activity against L1210 mouse leukemia in BDF1 mice (survival); format: in vivo; conditions: for T/C (test group mean day of death / control group mean day of death): Day 1 through Day 9, uninjected control group
Protocol: as §3
Actual doses administered and results comprise Table IV. Results are expressed as the ratio (T/C) of the test group mean day of death to control group mean day of death.

[6] = 8-Hydroxyquinoline 0.15 μg/ml, Tyrosinase 0

Oc1cccc2cccnc12 [8-Hydroxyquinoline, 8-hydroxyquinoline]
Reaction Rate ([1]; 8-Hydroxyquinoline 10 μg/ml): 0.0353 Δ OD/Min | Reaction Rate ([1]; 8-Hydroxyquinoline 50 μg/ml): 0.0160 Δ OD/Min | Reaction Rate ([1]; 8-Hydroxyquinoline 200 μg/ml): 0.0007 Δ OD/Min | L1210 Cell Growth (cell concentration day 3 - day 0) (L1210 leukemia cells [2]; 8-Hydroxyquinoline 0.1 μg/ml, Tyrosinase 0): 126.8 × 10^3 cells/ml | L1210 Cell Growth % Inhibition (%I) (L1210 leukemia cells [2]; [6]): 61.9% | L1210 Cell Growth (cell concentration day 3 - day 0) (L1210 leukemia cells [2]; [6]): 56.4 × 10^3 cells/ml | L1210 Cell Growth (cell concentration day 3 - day 0) (L1210 leukemia cells [2]; 8-Hydroxyquinoline 0.2 μg/ml, Tyrosinase 0): 7.4 × 10^3 cells/ml | Inhibition (%) (L1210 leukemia cells [2]; Completed Medium, 0.15 g/ml 8-Hydroxyquinoline, two experiments): 12.1% and 21.8% | Cell × 10^3 /ml (L1210 leukemia cells [2]; Completed Medium, 0.15 g/ml 8-Hydroxyquinoline, two experiments (controls 391.9, 358.5)): 344.5 × 10^3 /ml and 280.2 × 10^3 /ml | inhibition at 0.1 µg/mL (L1210 leukemia cells [2]; Mus musculus, L1210, 8-Hydroxyquinoline 0.1 μg/ml, Tyrosinase 0, read-out: L1210 Cell Growth % Inhibition (%I)): 14.3% | inhibition at 0.15 µg/mL (L1210 leukemia cells [2]; Mus musculus, L1210, 8-Hydroxyquinoline 0.15 μg/ml, Tyrosinase 0, read-out: L1210 Cell Growth % Inhibition (%I)): > 60% | inhibition at 0.2 µg/mL (L1210 leukemia cells [2]; Mus musculus, L1210, 8-Hydroxyquinoline 0.2 μg/ml, Tyrosinase 0, read-out: L1210 Cell Growth % Inhibition (%I)): 95% | Day 1-5 Weight Change ([3]; 2.5 mg/kg/day): -0.3 gm/mouse | Day 1-5 Weight Change ([3]; 5 mg/kg/day): +1.4 gm/mouse | Day 1-5 Weight Change ([3]; 10 mg/kg/day): +1.0 gm/mouse | Day 1-5 Weight Change ([3]; 20 mg/kg/day): +1.0 gm/mouse | Inhibition (%) (L1210 leukemia cells [4]; two experiments): 45.6% and 52.2% | Cell × 10^3 /ml (L1210 leukemia cells [4]; two experiments (controls 102.5, 62.1)): 55.8 × 10^3 /ml and 29.7 × 10^3 /ml | LD50 [5]: ~75 mg/kg | T/C (test group mean day of death / control group mean day of death) (L1210 mouse leukemia; 2.5 mg/kg/day): .95 | T/C (test group mean day of death / control group mean day of death) (L1210 mouse leukemia; 5 mg/kg/day): .92 | T/C (test group mean day of death / control group mean day of death) (L1210 mouse leukemia; 10 mg/kg/day): .97 | T/C (test group mean day of death / control group mean day of death) (L1210 mouse leukemia; 20 mg/kg/day): .97 | Mean day of Death (I.S.D.) (L1210 mouse leukemia; mouse, in vivo, listed as 8-OH-quinoline): 9.5 ± 0.8 days and 9.5 ± 0.4 days and 9.0 ± 0.6 days and 9.3 ± 0.8 days
